# Laboratory results reported in PubChem BioAssay (NCI).
#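 Five concentrations, 48 hours, 96-well plates. Abbreviation: GI50, concentration required for 50% inhibition of growth. TGI denotes the concentration required for complete inhibition of growth.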
# Tests used:
# Assay in all cases: NCI anticancer screen, dose series, 48 h
# [1] = system: SK-OV-3 ovarian
# [2] = system: COLO 205 colon
# [3] = system: HCT-116 colon
# [4] = system: UACC-257 melanoma
# [5] = system: U251 CNS
# [6] = system: MCF7 breast
# [7] = system: HCC-2998 colon
# [8] = system: RPMI-8226 leukemia
# [9] = system: UO-31 renal
# [10] = system: SNB-75 CNS
# [11] = system: T-47D breast
# [12] = system: SF-295 CNS
# [13] = system: MOLT-4 leukemia
# [14] = system: HS 578T breast
# [15] = system: SK-MEL-2 melanoma
# [16] = system: DU-145 prostate
# [17] = system: PC-3 prostate
# [18] = system: SK-MEL-5 melanoma
# [19] = system: RXF 393 renal
# [20] = system: A498 renal
# [21] = system: A549 NSCLC
# [22] = system: NCI-H226 lung
# [23] = system: SNB-19 CNS
# [24] = system: SF-268 CNS
# [25] = system: HOP-92 NSCLC
# [26] = system: LOX IMVI melanoma
# [27] = system: TK-10 renal
# [28] = system: MALME-3M melanoma
# [29] = system: EKVX NSCLC
# [30] = system: HCT-15 colon
# [31] = system: M14 melanoma
# [32] = system: SF-539 CNS
# [33] = system: UACC-62 melanoma
# [34] = system: ACHN renal
# [35] = system: IGROV1 ovarian
# [36] = system: NCI-H23 lung
# [37] = system: HL-60(TB) leukemia
# [38] = system: MDA-MB-435
# [39] = system: BT-549 breast
# [40] = system: KM12 colon
# [41] = system: OVCAR-4 ovarian
# [42] = system: HT29 colon
# [43] = system: SR leukemia
# [44] = system: SK-MEL-28 melanoma
# [45] = system: SW-620 colon
# [46] = system: CCRF-CEM leukemia
# [47] = system: NCI-H460 lung
# [48] = system: OVCAR-5 ovarian
# [49] = system: 786-0 renal
# [50] = system: OVCAR-3 ovarian
# [51] = system: MDA-MB-231 breast
# [52] = system: HOP-62 NSCLC
# [53] = system: NCI/ADR-RES ovarian
# [54] = system: NCI-H522 lung
# [55] = system: OVCAR-8 ovarian
# [56] = system: SN12C renal
# [57] = system: CAKI-1 renal
# [58] = system: K-562 leukemia
structure (smiles),measurement,setting,value
O=C(O)c1sccc1O,GI50,[1],> 100 µM
same,TGI,[1],> 100 µM
same,GI50,[2],60.1 µM
same,TGI,[2],> 100 µM
same,GI50,[3],31.2 µM
same,TGI,[3],> 100 µM
same,GI50,[4],47.2 µM
same,TGI,[4],> 100 µM
same,GI50,[5],34.7 µM
same,TGI,[5],> 100 µM
same,GI50,[6],31.5 µM
same,TGI,[6],> 100 µM
same,GI50,[7],36.6 µM
same,TGI,[7],> 100 µM
same,GI50,[8],25.2 µM
same,TGI,[8],> 100 µM
same,GI50,[9],15.2 µM
same,TGI,[9],> 100 µM
same,GI50,[10],15.9 µM
same,TGI,[10],> 100 µM
same,GI50,[11],33.3 µM
same,TGI,[11],> 100 µM
same,GI50,[12],34.8 µM
same,TGI,[12],> 100 µM
same,GI50,[13],34.9 µM
same,TGI,[13],> 100 µM
same,GI50,[14],24.9 µM
same,TGI,[14],> 100 µM
same,GI50,[15],35.1 µM
same,TGI,[15],> 100 µM
same,GI50,[16],48 µM
same,TGI,[16],> 100 µM
same,GI50,[17],24.2 µM
same,TGI,[17],> 100 µM
same,GI50,[18],25.3 µM
same,TGI,[18],99.2 µM
same,GI50,[19],32 µM
same,TGI,[19],> 100 µM
same,GI50,[20],52.3 µM
same,TGI,[20],> 100 µM
same,GI50,[21],50.3 µM
same,TGI,[21],> 100 µM
same,GI50,[22],> 100 µM
same,TGI,[22],> 100 µM
same,GI50,[23],41.3 µM
same,TGI,[23],> 100 µM
same,GI50,[24],33.2 µM
same,TGI,[24],> 100 µM
same,GI50,[25],24.9 µM
same,TGI,[25],> 100 µM
same,GI50,[26],26.4 µM
same,TGI,[26],> 100 µM
same,GI50,[27],89.6 µM
same,TGI,[27],> 100 µM
same,GI50,[28],83.4 µM
same,TGI,[28],> 100 µM
same,GI50,[29],21.7 µM
same,TGI,[29],> 100 µM
same,GI50,[30],32.1 µM
same,TGI,[30],> 100 µM
same,GI50,[31],27 µM
same,TGI,[31],> 100 µM
same,GI50,[32],28.8 µM
same,TGI,[32],> 100 µM
same,GI50,[33],17.9 µM
same,TGI,[33],52 µM
same,GI50,[34],28.6 µM
same,TGI,[34],> 100 µM
same,GI50,[35],21.8 µM
same,TGI,[35],> 100 µM
same,GI50,[36],37.3 µM
same,TGI,[36],> 100 µM
same,GI50,[37],33.9 µM
same,TGI,[37],90.1 µM
same,GI50,[38],27.1 µM
same,TGI,[38],> 100 µM
same,GI50,[39],21.6 µM
same,TGI,[39],> 100 µM
same,GI50,[40],30.6 µM
same,TGI,[40],> 100 µM
same,GI50,[41],26.4 µM
same,TGI,[41],> 100 µM
same,GI50,[42],57.5 µM
same,TGI,[42],> 100 µM
same,GI50,[43],34.5 µM
same,TGI,[43],> 100 µM
same,GI50,[44],32.2 µM
same,TGI,[44],> 100 µM
same,GI50,[45],31.4 µM
same,TGI,[45],> 100 µM
same,GI50,[46],31.9 µM
same,TGI,[46],> 100 µM
same,GI50,[47],33.5 µM
same,TGI,[47],> 100 µM
same,GI50,[48],76.3 µM
same,TGI,[48],> 100 µM
same,GI50,[49],60.9 µM
same,TGI,[49],> 100 µM
same,GI50,[50],32.7 µM
same,TGI,[50],> 100 µM
same,GI50,[51],16.4 µM
same,TGI,[51],73.5 µM
same,GI50,[52],22.2 µM
same,TGI,[52],> 100 µM
same,GI50,[53],40.5 µM
same,TGI,[53],> 100 µM
same,GI50,[54],25.4 µM
same,TGI,[54],80.7 µM
same,GI50,[55],47.7 µM
same,TGI,[55],> 100 µM
same,GI50,[56],32.7 µM
same,TGI,[56],> 100 µM
c1ccc(CSc2nnc3c4c5c(sc4nc(-c4cccnc4)n23)CCCCCC5)cc1,GI50,[1],2.75 µM
same,TGI,[1],9.54 µM
same,GI50,[2],1.55 µM
same,TGI,[2],3.33 µM
same,GI50,[3],2.77 µM
same,TGI,[3],11.3 µM
same,GI50,[57],3.43 µM
same,TGI,[57],15.7 µM
same,GI50,[4],2.12 µM
same,TGI,[4],8.74 µM
same,GI50,[5],2.2 µM
same,TGI,[5],12 µM
same,GI50,[6],2.64 µM
same,TGI,[6],11.2 µM
same,GI50,[7],4.21 µM
same,TGI,[7],15.3 µM
same,GI50,[8],1.87 µM
same,TGI,[8],12.5 µM
same,GI50,[9],3.73 µM
same,TGI,[9],15.1 µM
same,GI50,[10],2.58 µM
same,TGI,[10],10.3 µM
same,GI50,[11],0.495 µM
same,TGI,[11],12.3 µM
same,GI50,[12],2.8 µM
same,TGI,[12],11.8 µM
same,GI50,[13],3 µM
same,TGI,[13],11.3 µM
same,GI50,[14],3.84 µM
same,TGI,[14],28.6 µM
same,GI50,[15],2.05 µM
same,TGI,[15],6.02 µM
same,GI50,[16],3.42 µM
same,TGI,[16],14.4 µM
same,GI50,[17],2.36 µM
same,TGI,[17],10.8 µM
same,GI50,[58],2.34 µM
same,TGI,[58],10.4 µM
same,GI50,[18],1.37 µM
same,TGI,[18],2.68 µM
same,GI50,[19],2.79 µM
same,TGI,[19],13.1 µM
same,GI50,[20],2.24 µM
same,GI50,[21],2.8 µM
same,TGI,[21],13.4 µM
same,GI50,[22],2.03 µM
same,TGI,[22],9.96 µM
same,GI50,[23],3.96 µM
same,TGI,[23],16.2 µM
same,GI50,[24],4.57 µM
same,TGI,[24],17.8 µM
same,GI50,[25],1.7 µM
same,TGI,[25],7.24 µM
same,GI50,[26],3.08 µM
same,TGI,[26],11.1 µM
same,GI50,[27],3.83 µM
same,TGI,[27],12.6 µM
same,GI50,[28],2.76 µM
same,TGI,[28],7.52 µM
same,GI50,[30],4.51 µM
same,TGI,[30],17 µM
same,GI50,[31],3.75 µM
same,TGI,[31],16.9 µM
same,GI50,[32],3.51 µM
same,TGI,[32],12.9 µM
same,GI50,[33],1.91 µM
same,TGI,[33],7.23 µM
same,GI50,[34],2.98 µM
same,TGI,[34],10.5 µM
same,GI50,[35],4.18 µM
same,TGI,[35],19.2 µM
same,GI50,[36],2.74 µM
same,TGI,[36],8.33 µM
same,GI50,[37],1.84 µM
same,TGI,[37],5.27 µM
same,GI50,[38],2.61 µM
same,TGI,[38],9.88 µM
same,GI50,[39],2.8 µM
same,TGI,[39],9.04 µM
same,GI50,[40],2.6 µM
same,TGI,[40],10.5 µM
same,GI50,[41],2.08 µM
same,TGI,[41],10.2 µM
same,GI50,[42],2.78 µM
same,TGI,[42],10.9 µM
same,GI50,[43],2.59 µM
same,TGI,[43],10.1 µM
same,GI50,[44],3.35 µM
same,TGI,[44],14.1 µM
same,GI50,[45],3.09 µM
same,TGI,[45],13.3 µM
same,GI50,[46],1.11 µM
same,TGI,[46],15.5 µM
same,GI50,[47],2.97 µM
same,TGI,[47],11.1 µM
same,GI50,[48],4.99 µM
same,TGI,[48],17.5 µM
same,GI50,[49],3.63 µM
same,TGI,[49],14.2 µM
same,GI50,[50],2.86 µM
same,TGI,[50],12.4 µM
same,GI50,[51],2.18 µM
same,TGI,[51],7.15 µM
same,GI50,[52],2.96 µM
same,TGI,[52],12.3 µM
same,GI50,[53],14.1 µM
same,TGI,[53],38.1 µM
same,GI50,[54],1.39 µM
same,TGI,[54],5.07 µM
same,GI50,[55],2.86 µM
same,TGI,[55],13.2 µM
same,GI50,[56],2.99 µM
same,TGI,[56],11.8 µM
